What all share (format): cell-based, human
For test [1], the system named is SCC-112 mRNA in LnCap prostate cancer cells. In words: Northern hybridization of SCC-112 mRNA in androgen-treated LNCaP cells. The procedure:
FIG. 5. Androgen induces the steady state levels of SCC-112 mRNA in prostate cancer cells. LNcap prostate cancer cells were grown in IMEM with 5% FBS. Logarithmically growing cells were switched to medium containing 5% charcoal stripped serum […] before the experiment. Indicated concentrations of synthetic androgen, R1881 (NEN) were added for 48 h. Total RNA was isolated and subjected to Northern hybridization using SCC-112 as probe.
FIG. 6. […] LnCAP cells were grown in IMEM medium containing 5% fetal bovine serum. Medium was replaced with 5% charcoal-stripped serum containing medium for 24 h, followed by addition of indicated concentration of synthetic androgen (R1881) for 48 h. Total RN A was isolated from various treatments and analyzed by northern blotting and hybridization using a radiolabeled SCC-112 cDNA fragment (1568 bp-6744 bp).
(§1) RNA Isolation and Northern Hybridization: MDA-MB 435 cells were synchronized at different cell cycle stages, and total RNA was isolated with Trizol reagent according to the manufacturer's instructions (Invitrogen Life technologies, Inc.). […] The autoradiographs were scanned and bands were quantified using IMAGEQUANT software (Molecular Dynamics, Sunnyvale, Calif.).

Test [2] has as its system SCC-112 mRNA in MDA-MB 435 cells. In words: Northern hybridization of SCC-112 mRNA in nocodazole-arrested (G2/M) MDA-MB 435 cells. The note with it: 100 ng/ml, 16 h, G2/M phase. Here is the method: (§2) (C) Expression of SCC-112 mRNA and protein in G2/M phase. Logarithmically growing cells were arrested at G2/M phase using 100 ng/ml of nocodazole for 16 h (+). SCC-112 mRNA (upper) and protein levels (lower) were quantified as above. The SCC-112. mRNA level was ˜2 fold higher during G2/M phase (+) as compared to untreated cells (−). SCC-112 protein level was elevated during G2/M phase (˜5 fold) in nocodazole treated cells (+) as compared to untreated cells (−).
as §1
(§3) Cell Synchronization and Flow Cytometry: Logarithmically growing MDA-MB 435 cells were treated with 4 ug/ml aphidicolin, a DNA polymerase-a inhibitor, for 24 h to synchronize cells at G1/S phase. […] The cell cycle distribution profiles were determined using a Fluorescence Activated Cell Sorter (Becton Dickinson).

For test [3], the system named is SCC-112 protein in MDA-MB 435 cells. In words: Western blot of SCC-112 protein in nocodazole-arrested (G2/M) MDA-MB 435 cells. The note with it: 100 ng/ml, 16 h, G2/M phase. The procedure:
as §2
Western Blot Analysis: The cells were rinsed with ice-cold PBS and scrapped in lysis solution containing Tris (20 mM, pH 8.0), NaCl (150 mM), 1% NP-40 (w/v), 10% glycerol (w/v), 1 mM phenylmethylsulphonyl fluoride (PMSF), aprotinin (20 ug/ml) and leupeptin (20 ug/ml). The cells were lysed for 45 min with vigorous shaking at 4° C. and centrifuged at 12,000×g for 15 min at 4° C. Fifty micrograms of total protein were heat denatured by boiling for 5 min in SDS-PAGE loading buffer. After SDS-PAGE, the proteins were electrophoretically transferred on to PVDF membrane (Millipore). […]
as §3
(In general: In western blotting, separated proteins are transferred to a membrane and probed.)

Several values for one entry are separate records, joined by “and”; a condition that tells them apart may be missing. Identical values can stand only once.

Regarding `C[C@]1(O)CC[C@H]2[C@@H]3CCC4=CC(=O)CCC4=C3C=C[C@@]21C` [R1881], in test [1] (LNCaP cells, charcoal-stripped serum, 1 nM to 100 nM, 48 h, vs untreated cells), the “induction of steady state level of SCC-112 transcript (~8.0 kb)” value is 4-7 fold and 4- to 7 fold. Moreover, in test [1] (LNCap cells, FIG. 5), the “effect on SCC-112 mRNA expression (in words)” value is “induces SCC-112 mRNA expression”.
Take `COC(=O)Nc1nc2ccc(C(=O)c3cccs3)cc2[nH]1` [nocodazole]: the “SCC-112 mRNA level vs untreated cells” value in test [2] is on record as around 2 fold. Besides, in test [3], the “SCC-112 protein level vs untreated cells” value is around 5 fold.

These data come from patent US7351811B2, “Gene SCC-112 and diagnostic and therapeutic uses thereof” (Georgetown University, priority 2001, dated 2008).
